Tested on: Primary human fibroblasts derived from IPF patients (LL29 cells) treated with TGF-β1
Assay: Inhibition of the fibrotic process: αSMA staining in TGF-β1 treated fibroblasts
Type: cell-based
Details: Fibroblast, 96 h, LL29 fibroblasts treated with TGF-β1, 4 days; for inhibition at 10 µM: read-out: percent inhibition in brackets beside EC50 >10 μM
From the text: Representative compounds were screened using primary human fibroblasts (derived from IPF patients) treated with TGF-β1 to determine their ability to inhibit the fibrotic process.
Primary human fibroblasts derived from IPF patients (LL29 cells) [^1Xiaoqiu Liu, et. al., “Fibrotic Lung Fibroblasts Show Blunted Inhibition by cAMP Due to Deficient cAMP Response Element-Binding Protein Phosphorylation”, Journal of Pharmacology and Experimental Therapeutics (2005), 315(2), 678-687; ^2Watts, K. L., et. al., “RhoA signaling modulates cyclin D1 expression in human lung fibroblasts; implications for idiopathic pulmonary fibrosis”, Respiratory Research (2006), 7(1), 88] were obtained from American Type Culture Collection (ATCC) and expanded in F12 medium supplemented with 15% Fetal Bovine Serum and Penicillin/Streptomycin.
Each compound was dissolved in DMSO as a 10 mM stock and used to prepare compound source plates. Serial dilution (1:2, 11-point dose-response curves from 10 μM to 1.87 nM) and compound transfer was performed using the ECHO 550 (Labcyte, Sunnyvale, Calif.) into 384-well clear bottom assay plates (Greiner Bio-One) with appropriate DMSO backfill for a final DMSO concentration of 0.1%. LL29 cells are plated at 1,500 cells/well in 80 μL/well F12 medium supplemented with 1% Fetal Bovine Serum. One hour after addition of the cells, TGF-β1 (Peprotech; 20 ng/mL) was added to the plates to induce fibrosis (ref. 1 and 2 above). Wells treated with TGF-β1 and containing DMSO were used as controls. Cells were incubated at 37° C. and 5% CO2 for 4 days. Following incubation for 4 days, SYTOX green nucleic acid stain (Life Technologies [Thermo Fisher Scientific]) was added to the wells at a final concentration of 1 μM and incubated at room temperature for 30 min. Cells were then fixed using 4% formaldehyde (Electron Microscopy Sciences), washed 3 times with PBS followed by blocking and permeabilization using 3% Bovine Serum Albumin (BSA; Sigma) and 0.3% Triton X-100 (Sigma) in PBS. Cells were then stained with antibody specific to α-smooth muscle actin (αSMA; Abcam) (ref. 1 and 2 above) in 3% Bovine Serum Albumin (BSA; Sigma) and 0.3% Triton X-100 (Sigma) in PBS, and incubated overnight at 4° C. Cells were then washed 3 times with PBS, followed by incubation with Alexa Flor-647 conjugated secondary antibody (Life Technologies [Thermo Fisher Scientific]) and DAPI at room temperature for 1 hour. Cells were then washed 3 times with PBS and plates were sealed for imaging. αSMA staining was imaged by excitation at 630 nm and emission at 665 nm and quantified using the Compartmental Analysis program on the CellInsight CX5 (Thermo Scientific). Dead or apoptotic cells were excluded from analysis based on positive SYTOX green staining. % of total cells positive for αSMA were counted in each well and normalized to the average of 11 wells treated with TGF-β1 on the same plate using Dotmatics' Studies Software. The normalized averages (fold change over untreated) of 3 replicate wells for each compound concentration were used to create dose-responses curves and EC50 values were calculated using non-linear regression curve fit in the Dotmatics' Studies Software. For EC50 of >10 μM, the percent inhibition at 10 μM is provided.

SMILES	EC50 [µM]	inhibition at 10 µM [%]
Cc1ccc(-c2nccc3[nH]c(-c4n[nH]c5ccc(-c6cncc(OC7CCCCC7)c6)nc45)nc23)s1 [Compound 735, 5-(5-(Cyclohexyloxy)pyridin-3-yl)-3-(4-(5-methylthiophen-2-yl)-1H-imidazo[4,5-c]pyridin-2-yl)-1H-pyrazolo[4,3-b]pyridine]	0.958	
Cn1cc(-c2ccc3[nH]nc(-c4nc5c(-c6cc(F)cc(CNS(C)(=O)=O)c6)nccc5[nH]4)c3n2)cn1 [Compound 764, N-(3-Fluoro-5-(2-(5-(1-methyl-1H-pyrazol-4-yl)-1H-pyrazolo [4,3-b]pyridin-3-yl)-1H-imidazo[4,5-c]pyridin-4-yl)benzyl)methanesulfonamide]	1.06	
c1ccc(CNCc2cncc(-c3ccc4[nH]nc(-c5nc6c(-c7ccsc7)nccc6[nH]5)c4n3)c2)cc1 [Compound 304, N-Benzyl-1-(5-(3-(4-(thiophen-3-yl)-1H-imidazo[4,5-c]pyridin-2-yl)-1H-pyrazolo [4,3-b]pyridin-5-yl)pyridin-3-yl)methanamine]	6.56	
O=C(Nc1cncc(-c2ccc3[nH]nc(-c4nc5c(-c6ccsc6)nccc5[nH]4)c3n2)c1)c1ccccc1 [Compound 291, N-(5-(3-(4-(Thiophen-3-yl)-1H-imidazo[4,5-c]pyridin-2-yl)-1H-pyrazolo [4,3-b]pyridin-5-yl)pyridin-3-yl)benzamide]	> 10	0
O=C(Nc1cncc(-c2ccc3[nH]nc(-c4nc5c(N6CCCCC6)nccc5[nH]4)c3n2)c1)C1CC1 [Compound 188, N-(5-(3-(4-(Piperidin-1-yl)-1H-imidazo[4,5-c]pyridin-2-yl)-1H-pyrazolo [4,3-b]pyridin-5-yl)pyridin-3-yl)cyclopropanecarboxamide]	> 10	0
Cn1cc(-c2ccc3[nH]nc(-c4nc5c(-c6ccc(F)cc6)nccc5[nH]4)c3n2)c(CO)n1 [Compound 1128, (4-(3-(4-(4-Fluorophenyl)-1H-imidazo[4,5-c]pyridin-2-yl)-1H-pyrazolo[4,3-b]pyridin-5-yl)-1-methyl-1H-pyrazol-3-yl)methanol]	2.67	
CC(C)(C)CC(=O)Nc1cncc(-c2ccc3[nH]nc(-c4nc5c(-c6ccccc6F)nccc5[nH]4)c3n2)c1 [Compound 72, N-(5-(3-(4-(2-fluorophenyl)-1H-imidazo[4,5-c]pyridin-2-yl)-1H-pyrazolo [4,3-b]pyridin-5-yl)pyridin-3-yl)-3,3-dimethylbutanamide]	> 10	0
CN1CCN(c2nccc3[nH]c(-c4n[nH]c5ccc(-c6cncnc6)nc45)nc23)CC1 [Compound 251, 3-(4-(4-Methylpiperazin-1-yl)-1H-imidazo[4,5-c]pyridin-2-yl)-5-(pyrimidin-5-yl)-1H-pyrazolo[4,3-b]pyridine]	> 10	17.7
Fc1ccccc1-c1nccc2[nH]c(-c3n[nH]c4ccc(-c5ccccn5)nc34)nc12 [Compound 84, 3-(4-(2-Fluorophenyl)-1H-imidazo[4,5-c]pyridin-2-yl)-5-(pyridin-2-yl)-1H-pyrazolo[4,3-b]pyridine]	> 10	18.1
O=C(CC1CCNCC1)Nc1cncc(-c2ccc3[nH]nc(-c4nc5c(-c6ccsc6)nccc5[nH]4)c3n2)c1 [Compound 673, 2-(Piperidin-4-yl)-N-(5-(3-(4-(thiophen-3-yl)-1H-imidazo[4,5-c]pyridin-2-yl)-1H-pyrazolo[4,3-b]pyridin-5-yl)pyridin-3-yl)acetamide]	1.07	
c1cc2[nH]c(-c3n[nH]c4ccc(-c5cncc(OC6CCNCC6)c5)nc34)nc2cn1 [Compound 656, 3-(1H-Imidazo[4,5-c]pyridin-2-yl)-5-(5-(piperidin-4-yloxy)pyridin-3-yl)-1H-pyrazolo[4,3-b]pyridine]	3.33	
Cn1cc(-c2ccc3[nH]nc(-c4nc5c(-c6ccc7c(c6)OCO7)nccc5[nH]4)c3n2)c(CO)n1 [Compound 1151, (4-(3-(4-(Benzo[d][1,3]dioxol-5-yl)-1H-imidazo[4,5-c]pyridin-2-yl)-1H-pyrazolo [4,3-b]pyridin-5-yl)-1-methyl-1H-pyrazol-3-yl)methanol]	> 10	0
NC1CN(c2cncc(-c3ccc4[nH]nc(-c5nc6c(-c7ccc(Cl)s7)nccc6[nH]5)c4n3)n2)C1 [Compound 1068, 1-(6-(3-(4-(5-Chlorothiophen-2-yl)-1H-imidazo[4,5-c]pyridin-2-yl)-1H-pyrazolo[4,3-b]pyridin-5-yl)pyrazin-2-yl)azetidin-3-amine]	3.99	
CN1CCN(c2nccc3[nH]c(-c4n[nH]c5ccc(-c6cncc(NC(=O)C7CCCC7)c6)nc45)nc23)CC1 [Compound 246, N-(5-(3-(4-(4-Methylpiperazin-1-yl)-1H-imidazo[4,5-c]pyridin-2-yl)-1H-pyrazolo [4,3-b]pyridin-5-yl)pyridin-3-yl)cyclopentanecarboxamide]	5.26	
Cc1ccc(-c2nccc3[nH]c(-c4n[nH]c5ccc(C6=CCNCC6)nc45)nc23)s1 [Compound 730, 3-(4-(5-Methylthiophen-2-yl)-1H-imidazo[4,5-c]pyridin-2-yl)-5-(1,2,3,6-tetrahydropyridin-4-yl)-1H-pyrazolo[4,3-b]pyridine]	6.17	
c1cc2[nH]c(-c3n[nH]c4ccc(C5CCNCC5)nc34)nc2c(-c2ccc3c(c2)OCO3)n1 [Compound 1108, 3-(4-(Benzo[d][1,3]dioxol-5-yl)-1H-imidazo[4,5-c]pyridin-2-yl)-5-(piperidin-4-yl)-1H-pyrazolo[4,3-b]pyridine]	> 10	43.7
COc1cccc(-c2nccc3[nH]c(-c4n[nH]c5ccc(-c6cn[nH]c6)nc45)nc23)c1 [Compound 1020, 3-(4-(3-Methoxyphenyl)-1H-imidazo[4,5-c]pyridin-2-yl)-5-(1H-pyrazol-4-yl)-1H-pyrazolo[4,3-b]pyridine]	> 10	0
O=C(Nc1cncc(-c2ccc3[nH]nc(-c4nc5c(-c6ccccn6)nccc5[nH]4)c3n2)c1)c1ccccc1 [Compound 151, N-(5-(3-(4-(Pyridin-2-yl)-1H-imidazo[4,5-c]pyridin-2-yl)-1H-pyrazolo[4,3-b]pyridin-5-yl)pyridin-3-yl)benzamide]	> 10	0
O=C(Nc1cncc(-c2ccc3[nH]nc(-c4nc5c(-c6ccncc6)nccc5[nH]4)c3n2)c1)C1CCCCC1 [Compound 135, N-(5-(3-(4-(pyridin-4-yl)-1H-imidazo[4,5-c]pyridin-2-yl)-1H-pyrazolo[4,3-b]pyridin-5-yl)pyridin-3-yl)cyclohexanecarboxamide]	> 10	0
COc1cccc(-c2nccc3[nH]c(-c4n[nH]c5ccc(-c6cncc(O)c6)nc45)nc23)c1 [Compound 1030, 5-(3-(4-(3-Methoxyphenyl)-1H-imidazo[4,5-c]pyridin-2-yl)-1H-pyrazolo [4,3-b]pyridin-5-yl)pyridin-3-ol]	9.7	
COc1cccc(-c2nccc3[nH]c(-c4n[nH]c5ccc(-c6cncc(OC7CCNCC7)c6)nc45)nc23)c1 [Compound 1025, 3-(4-(3-Methoxyphenyl)-1H-imidazo[4,5-c]pyridin-2-yl)-5-(5-(piperidin-4-yloxy)pyridin-3-yl)-1H-pyrazolo[4,3-b]pyridine]	3.33	
CN(C)CCNc1cc(F)cc(-c2nccc3[nH]c(-c4n[nH]c5ccc(-c6cnccn6)nc45)nc23)c1 [Compound 792, N^1-(3-Fluoro-5-(2-(5-(pyrazin-2-yl)-1H-pyrazolo[4,3-b]pyridin-3-yl)-1H-imidazo[4,5-c]pyridin-4-yl)phenyl)-N^2,N^2-dimethylethane-1,2-diamine]	> 10	0
c1cc2[nH]c(-c3n[nH]c4ccc(-c5cncc(CNCC6CCCC6)c5)nc34)nc2c(-c2ccoc2)n1 [Compound 333, 1-Cyclopentyl-N-((5-(3-(4-(furan-3-yl)-1H-imidazo[4,5-c]pyridin-2-yl)-1H-pyrazolo [4,3-b]pyridin-5-yl)pyridin-3-yl)methyl)methanamine]	> 10	46.9
